Laboratory results from patent publication US10612035B2, “EPSPS mutants” (priority 2006, dated 2020).

Columns and labels:
[1] = target: wild-type EPSPS from E. coli (Escherichia coli, UniProt P0A6D3); settings: read-out: apparent Km for PEP; cited from earlier work
[2] = test system: Rice plants regenerated that contain the P173A mutant; settings: applied at commercial rates; rice with P173A EPSPS mutant
Text: The following genoplast (recombinagenic oligonucleobase) was made to make a P173A change in Oryza sativa (rice) germplasm:
(§1) wherein V is a fluorescent dye (V=Cy3) and H is a reverse nucleotide or reverse base (H=3′DMTdCCPG). The underlined nucleobases represent the heterologous region (codon) where the mutation occurs in the rice genome, ie, A. The genoplast is made according to well known techniques and the genoplast is preferably delivered into a rice plant cell via microparticle bombardment, ie, biolistics.

[3] = test system: EPSPS mutations in E coli (Area) and Arabidopsis NM 130093; settings: mutations 1-9 of the table
Text: To identify mutant EPSPS genes that will produce a gene product that provides resistance to glyphosate, in vitro screening can be done in a bacterial system to save time and resources. Growth curves of bacterial colonies expressing candidate mutant EPSPS genes can be generated to evaluate the mutant EPSPS genes in providing a glyphosate resistant phenotype. […] In another embodiment of the present invention, the E coli EPSPS gene, also called the AroA gene, can be used to evaluate EPSPS mutants for glyphosate resistance. Growth curve assays and enzymatic assays measuring Ki and Km values for candidate mutants are conducted according to well known assay techniques.

[4] = test system: Canola plants regenerated that contain the P178A mutant; settings: applied at commercial rates; canola with P178A EPSPS mutant
Text: The following genoplast (recombinagenic oligonucleobase) was made to make a P178A change in Brassica napus (canola) germplasm:
as §1, with “nucelobases” for “nucleobases”, “canola” for “rice”

Sequence of wild-type EPSPS from E. coli (P0A6D3 whole entry): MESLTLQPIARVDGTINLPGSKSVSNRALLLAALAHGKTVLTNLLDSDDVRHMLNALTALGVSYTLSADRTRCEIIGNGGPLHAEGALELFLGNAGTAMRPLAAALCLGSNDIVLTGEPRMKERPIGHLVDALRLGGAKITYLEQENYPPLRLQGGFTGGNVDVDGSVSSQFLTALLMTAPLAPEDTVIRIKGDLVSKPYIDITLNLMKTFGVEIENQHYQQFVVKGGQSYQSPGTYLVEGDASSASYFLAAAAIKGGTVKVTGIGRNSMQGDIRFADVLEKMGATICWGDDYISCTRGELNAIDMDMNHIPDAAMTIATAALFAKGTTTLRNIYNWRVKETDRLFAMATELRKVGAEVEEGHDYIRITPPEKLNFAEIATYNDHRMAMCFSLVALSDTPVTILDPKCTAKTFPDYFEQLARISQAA

| Structure (SMILES) | Km [1] [µM] | resistance of plants to glyphosate [2] | glyphosate resistant phenotype [3] | resistance of plants to glyphosate [4] |
| --- | --- | --- | --- | --- |
| C=C(OP(=O)(O)O)C(=O)O [PEP, phosphoenolpyruvic acid] | 10 | – | – | – |
| O=C(O)CNCP(=O)(O)O [glyphosate, N-phosphonomethylglycine] | – | resistant | resistant | resistant |
